What all share (assay type): physicochemical
Series [1] is described as follows: Comfort agent content of Example 6 lenses (exhaustive isopropanol extraction). As to conditions: comfort agent added to lens formulation, after autoclave. The procedure: A lens formulation is prepared as detailed in Example 3 where 1,2-dimyristoyl-sn-glycero-3-phosphocholine (DMPC) is added to the formulation at a concentration of 0.75% by weight and where the formulation solvent, 1-propanol, is reduced to 22.65% by weight. Lens curing is as described in Example 3. The lenses are demolded and then extracted in methyl ethyl ketone followed by a rinse in DI water for 56 seconds. The lenses are then dipped in a solution of polyacrylic acid (0.36% wt/vol in 1-propanol, pH-2). The lenses are then rinsed in water for 120 seconds and packaged in phosphate buffered saline. Lenses are then autoclaved for 30 minutes at 121° C. The content of comfort agents, DMPC and L-PEG, are determined as follows. Lenses are exhaustively extracted in isopropanol and the extract is tested for DMPC and N-(carbonyl-methoxypolyethylene glycol-2000)-1,2-disteaoyl-sn-glycero-3-phosphoethanolamine, sodium salt (L-PEG-2000) content. Lenses contain on average 30 μg DMPC and 10 μg L-PEG-2000 per lens.

A short description of series [2]: Control lenses: DMPC loading of Example 3 lenses (enzymatic assay). As to conditions: control lenses of Example 3, no release test, n=5. An excerpt:
Lenses are demolded and extracted with an organic solvent (e.g., isopropanol, 1-propanol, Dowanol, methyl ethyl ketone (MEK), or the like) and then dipped in a Dowanol PM (or alternatively MEK or 1-propanol) solution of polyacrylic acid (0.1% by weight, pH ˜2.0). The lenses are then rinsed for 60 seconds in water and then dipped in a Dowanol (or alternatively MEK or 1-propanol) solution of 1,2-dimyristoyl-sn-glycero-3-phosphocholine (DMPC, 1%) for about 60 to about 100 seconds. The lenses are then rinsed in water for 120 seconds and packaged in PBS. Lenses are then autoclaved for 30 min at 121° C. The second test is designed to try to maximize the amount of DM PC in ATF by leaving the lens in ATF for the entire release test. A single lens is placed in 1 mL ATF and incubated at 35° C. for 8 hrs. Every 30 min, the sample is vortexed and then returned to the incubator. At the conclusion of 8 hrs, the lens is removed from the ATF and the ATF is submitted for analysis. All analysis is done using an enzymatic assay method. A control set of lenses is submitted to confirm loading of the lenses with DMPC. This control sample set (n=5) show an average loading of 200 μg DMPC per lens.

Series [3] can be described thus: First release test: lens in artificial tear fluid (ATF) refreshed every 30 min, DMPC left in lens. As to conditions: first test: 500 μL ATF replaced every 30 min, 35° C., 8 hrs, n=5. The protocol:
Lenses (as prepared in Example 3) are subjected to one of two release tests in artificial tear fluid (ATF) prepared without any phospholipids and having a composition shown in Table 1. The first test is designed to maximize release of DMPC from the lens by refreshing the ATF frequently. A single lens is placed in 500 μL of ATF and incubated at 35° C. for 8 hrs. Every 30 min, the sample is vortexed, the ATF is withdrawn, a fresh 500 μL aliquot of ATF is added to the lens, the sample is again vortexed, and the sample is returned to the incubator. At the conclusion of 8 hrs, the lenses are removed from ATF, placed in 1 mL clean PBS, and submitted for analysis of DMPC content. The second test is designed to try to maximize the amount of DM PC in ATF by leaving the lens in ATF for the entire release test. A single lens is placed in 1 mL ATF and incubated at 35° C. for 8 hrs. Every 30 min, the sample is vortexed and then returned to the incubator. At the conclusion of 8 hrs, the lens is removed from the ATF and the ATF is submitted for analysis. All analysis is done using an enzymatic assay method.

Series [4] is described as follows: Second release test: lens left in ATF for 8 hrs, DMPC in ATF. As to conditions: second test: 1 mL ATF, 35° C., 3 pooled ATF samples, just below dynamic range of the assay. The procedure: Lenses (as prepared in Example 3) are subjected to one of two release tests in artificial tear fluid (ATF) prepared without any phospholipids and having a composition shown in Table 1. The second test is designed to try to maximize the amount of DM PC in ATF by leaving the lens in ATF for the entire release test. A single lens is placed in 1 mL ATF and incubated at 35° C. for 8 hrs. Every 30 min, the sample is vortexed and then returned to the incubator. At the conclusion of 8 hrs, the lens is removed from the ATF and the ATF is submitted for analysis. All analysis is done using an enzymatic assay method. Three ATF samples are pooled to increase the DMPC signal. […] The value for the 3 pooled samples is just below the dynamic range of the assay, making confidence in the quantified DMPC levels difficult yet still providing evidence of DMPC release from the lenses.

A short description of series [5]: Total content of radio-labeled DMPC in lenses (extraction, scintillation counting). As to conditions: radio labeled DMPC (C14) loaded from 1-propanol. The protocol: (§1) Lenses are prepared according to the procedures described in Example 3, except that DMPC used in this example is a radio labeled DMPC (C14). The radio labeled DMPC is supplied by New England Nuclear (Waltham, Mass.). Lenses are loaded with radio-labeled DMPC by dipping the lenses into a solution of the radio-labeled DMPC in 1-propanol. Loaded lenses are then subjected to release testing using artificial tear fluid (ATF) as the release media. Components listed in Table 2 are dissolved in a phosphate buffered saline solution to provide a physiologically acceptable pH and osmolality.
The DMPC content of the lenses is also measured using one of two techniques: • (1) Lenses that had previously been subjected to release testing are fully extracted and the eluate is then analyzed for DMPC content. This amount of DMPC is numerically added to the DMPC already quantified in the release media. Thus, all DMPC is accounted for, cradle-to-grave. • (2) Other lenses, not subject to release testing, are also extracted to determine initial DMPC content (total loading of DM PC in lenses).

The nature of series [6]: Release of radio-labeled DMPC from lens into ATF over 24 hours (scintillation counter). As to conditions: 1 mL ATF, radio labeled DMPC (C14). The protocol: as §1
Release tests are conducted by placing a single lens in 1 mL of ATF and then incubating the sample for 24 hours. At specified time points of 0, 2, 4, 10, and 24 hours, small samples of release media are pulled and analyzed for DM PC content using a scintillation counter (C14 emits a weak beta particle).

Series [7] is described as follows: Release of DMPC from pooled Example 6 lenses into ATF, 24 hours, HPLC. As to conditions: pooled lenses (35 lenses in 3.5 mL ATF and 50 lenses in 5 mL ATF), 37° C. The protocol:
The release profile of contact lenses with comfort agents (DMPC and L-PEG) are determined as follows. Lenses are placed in release media (artificial tear fluid (ATF) as described in Example 4) for release testing. Lenses are pooled (35 lenses in 3.5 mL ATF and 50 lenses in 5 mL ATF) and then gently agitated at 37° C. for 24 hours. At the conclusion of the 24-hour release study, the lenses are removed from the ATF. The remaining ATF is then transferred to centrifuge tubes and dried overnight under vacuum in a centrifugal evaporator.
The dried residue from the ATF is then resuspended in 1-propanol (1 mL 1-propanol for each original 5 mL ATF) using sonication to assist in resuspension. The resulting solution is analyzed for presence of DMPC using HPLC.

Values joined by “and” are separate entries in the source; they are usually repeats but may differ in a detail not shown here. Identical values can stand only once.

On to “N-(carbonyl-methoxypolyethylene glycol-2000)-1,2-distearoyl-sn-glycero-3-phosphoethanolamine sodium salt [L-PEG-2000]”, for which the “average content per lens” value in series [1] is listed as 10 μg per lens.

Regarding `CCCCCCCCCCCCCC(=O)OC[C@H](COP(=O)([O-])OCC[N+](C)(C)C)OC(=O)CCCCCCCCCCCCC` [DMPC, 1,2-dimyristoyl-sn-glycero-3-phosphocholine], the “average loading of DMPC per lens” value in series [2] was 200 μg DMPC per lens. Further, the “average DMPC content of lens after release” value in series [3] is recorded as 177 μg DMPC per lens. Besides, the “DMPC in the ATF equivalent per lens” value in series [4] stood at 6 μg DM PC per lens. The “total DMPC content of the lenses” value in series [5] is reported as 32.1±2.7 micrograms of DMPC per lens. The DMPC release order entry in series [6] (0-24 hours) is “first order”. In series [6] (24-hour test period, eight samples), the “average cumulative DMPC release from the lens” value was 1.3 µg. For the same molecule, the “average content per lens” value in series [1] was determined as 30 μg per lens. The “DMPC in ATF after release” value in series [7] is 0.48 μg per mL ATF and 0.69 μg per mL ATF.

(Values after patent US10913224B2, “Ophthalmic devices for delivery of hydrophobic comfort agents” (Novartis AG, priority 2008, dated 2021).)
